Experimental data published in patent publication US9067894B1, “Compound, composition, and method of activating GIRK potassium channel and use of same for treating conditions of interest” (Vanderbilt University, priority 2013, dated 2015).
Several values for one entry are separate records, joined by “and”; a condition that tells them apart may be missing. Equal values may be shown once.

Key:
[1] = target: T1, GIRK1/2 (Homo sapiens, UniProt P48051+P48549); assay: Thallium flux, pertussis toxin-treated cells co-expressing mGlu8 and GIRK1/2; type: cell-based; design: host or cells: HEK-293; conditions: 600 ng/ml pertussis toxin; VU0456810 10 μM, glutamate 100 μM
T1 sequence (P48549 1-501): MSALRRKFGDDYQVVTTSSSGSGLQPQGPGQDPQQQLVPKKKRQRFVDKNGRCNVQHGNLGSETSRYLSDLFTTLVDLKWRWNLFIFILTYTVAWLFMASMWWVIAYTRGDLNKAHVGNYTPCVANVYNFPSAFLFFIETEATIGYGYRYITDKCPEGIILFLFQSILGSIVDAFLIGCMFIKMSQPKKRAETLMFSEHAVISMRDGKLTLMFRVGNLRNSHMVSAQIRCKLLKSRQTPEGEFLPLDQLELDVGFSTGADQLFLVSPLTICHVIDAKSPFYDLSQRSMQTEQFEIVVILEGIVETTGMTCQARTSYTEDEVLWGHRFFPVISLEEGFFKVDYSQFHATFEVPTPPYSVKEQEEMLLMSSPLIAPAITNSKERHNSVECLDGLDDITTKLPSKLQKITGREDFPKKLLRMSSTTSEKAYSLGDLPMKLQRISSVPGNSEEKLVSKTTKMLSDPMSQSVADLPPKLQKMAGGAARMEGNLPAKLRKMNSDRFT
T1 sequence (P48051 1-423): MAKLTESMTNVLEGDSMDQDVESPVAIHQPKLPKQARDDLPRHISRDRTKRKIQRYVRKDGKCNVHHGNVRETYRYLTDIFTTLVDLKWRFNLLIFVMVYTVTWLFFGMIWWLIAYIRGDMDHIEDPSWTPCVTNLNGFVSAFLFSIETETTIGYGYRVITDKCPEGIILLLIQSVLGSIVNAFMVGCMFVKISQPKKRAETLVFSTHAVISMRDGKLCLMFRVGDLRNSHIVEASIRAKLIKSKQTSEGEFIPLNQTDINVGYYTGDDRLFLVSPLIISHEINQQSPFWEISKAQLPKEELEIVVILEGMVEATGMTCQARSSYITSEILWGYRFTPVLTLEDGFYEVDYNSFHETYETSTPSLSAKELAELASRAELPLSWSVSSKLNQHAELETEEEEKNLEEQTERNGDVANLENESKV
Description: Cell Line Construction and Cell Culture. HEK-293 cells co-expressing human GIRK1/2 and rat mGlu8 were generated as previously described (Niswender et al., 2008). A HEK-293 cell line (ATCC, Manassas, Va.) expressing human GIRK1 and human GIRK2 was constructed by transfecting HEK-293 cells with GIRK1 and GIRK2 (Origene, Rockville, Md.) cloned into the pBudCE4.1 vector (Life Technologies, Carlsbad, Calif.) using FuGene 6 (Promega, Madison, Wis.) transfection reagent. Unless otherwise noted, other ion channel-expressing cells were prepared by transfecting HEK-293 cells with individual or combinations of subunits: GIRK1, pCMV6-A-BSD; GIRK2, pCMV6-A-puro; GIRK3, pCMV6-A-hygro; GIRK4, pCMV6-A-AC; Kv7.4, pIRESneo3. The Kir2.1 and hERG-expressing cell lines were made by transfecting T-REx-293 cells (Life Technologies, Carlsbad, Calif.) with Kir2.1 and Kv11.1, respectively, cloned into pcDNA5TO. Monoclonal cell lines were produced by limiting-dilution cloning of antibiotic-resistant cells and functional selection using the thallium flux assay described below. Unless otherwise noted, cells were maintained in Minimal Essential Medium, Alpha Medium (Mediatech, Manassas, Va.) supplemented with 10% fetal bovine serum (Sigma-Aldrich, Saint Louis, Mo.) and GlutaGro (Mediatech, Manassas, Va.), referred to henceforth as cell culture medium. […]

[2] = test system: GIRK; conditions: read-out: potency / reported EC50 as GIRK activator; cited from earlier work
[3] = Pentylenetetrazol (PTZ)-induced seizure model; type: in vivo, mouse; conditions: mice, i.p.; VU0456810 60 mg/kg, sodium valproate 150 mg/kg; PTZ 40 mg/kg; 20 minute timeframe
Description: After thirty minutes, PTZ was administered intraperitoneally (i.p., 40 mg/kg). Immediately following administration of PTZ, the amount of time elapsed before the first occurrence of tremors, tonic-clonic seizures, convulsion, and death was recorded. All mice were subject to a 20-minute post-[…] cutoff.
(§1) In all cases, experiments were conducted in a blind manner with respect to the experimenters. Data were evaluated in Excel using one-tailed, unpaired Student's t-test, assuming populations with unequal variance.

[4] = Maximal electroshock (MES) model of epilepsy; type: in vivo, mouse; conditions: mice, i.p.; VU0456810 60 mg/kg, sodium valproate 150 mg/kg; vs vehicle
Description: MES stimulation was applied, 30 minutes after injection, through transauricular (ear-clip) electrodes from an electroshock apparatus, HSE Shock Stimulator Type 221, (Harvard Apparatus, Holliston, Mass.) using the following parameters: 100-mA fixed current, a 50-60-Hz pulse frequency, a 0.6-ms pulse width and a 0.3-s stimulus duration. Animals were restrained by hand when applying the electrodes and released at the moment of stimulation to permit observation of the seizure throughout its entire course. Upon completion of the electrical stimulus, the amount of time until death was recorded. […] In this modified MES test, the electrical stimulus that was applied was sufficient to induce seizures and death from maximal seizure in 100% of the control mice.
as §1

## N[C@@H](CCC(=O)O)C(=O)O [glutamate, reference compound]
[1]
  effect of pertussis toxin treatment on evoked thallium flux: abolishing

## C[C@@H]1O[C@@H](O[C@H]2[C@H](Oc3cc(O)c4c(c3)O[C@H](c3ccc(O)cc3)CC4=O)O[C@H](CO)[C@@H](O)[C@@H]2O)[C@H](O)[C@H](O)[C@H]1O [naringin]
[2]
  EC50: ~100 µM and > 100 µM

## CCCC(CCC)C(=O)[O-].[Na+] [sodium valproate, reference compound]
[3]
  animals experiencing convulsions from PTZ treatment: significant decrease
  animals surviving PTZ treatment: significant increase
[4]
  latency of seizure onset: highly significant delays in seizure onset
